In patent publication US10865191B2, “Heterocyclic compounds useful as modulators of TNF alpha” (BRISTOL-MYERS SQUIBB COMPANY, priority 2015, dated 2020):

Target: TNFα (Homo sapiens, UniProt P01375)
Assay: TNF induced HEK-Blue assay (NF-kB-driven secreted alkaline phosphatase reporter)
Assay type: cell-based
Settings: TNFα 0.5 ng/mL, HEK-Blue-CD40L cells, 18 h; read-out: TNF induced HEK-Blue assay IC50 value
Outline: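 HEK-Blue-CD40L cells (NF-kB-driven SEAP reporter), 20,000/well, added after 30 min pre-incubation of compound (0.004–25 μM final) with TNFα 0.5 ng/mL final at 37 °C; 18 h incubation. SEAP read with QUANTI-Blue at 620 nm; IC50 from 4-parameter logistic fit, normalized to unstimulated and stimulated DMSO controls.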

TNFα, sequence (P01375 77-233 limits assumed): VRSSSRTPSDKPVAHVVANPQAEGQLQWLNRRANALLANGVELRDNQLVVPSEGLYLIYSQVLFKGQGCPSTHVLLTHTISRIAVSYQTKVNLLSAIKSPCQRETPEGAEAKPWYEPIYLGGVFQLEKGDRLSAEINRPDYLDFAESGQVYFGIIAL

Row | IC50 | SMILES
1 | < 1000 nM | Cc1nc2ccc(-c3cnc(C(C)(C)O)nc3)cc2c(N[C@@H](c2cc(C(C)(C)O)ccc2F)C(F)F)c1Cl [Example 418, (S)-2-(5-(3-chloro-4-((2,2-difluoro-1-(2-fluoro-5-(2-hydroxypropan-2-yl)phenyl)ethyl)amino)-2-methylquinolin-6-yl)pyrimidin-2-yl)propan-2-ol]
2 | < 1000 nM | CC(Nc1c(Cl)cnc2cc(F)c(-c3ccc(C(O)CO)cc3)cc12)c1ccccc1F (stereo not shown) [Example 256, 1-(4-(3-chloro-7-fluoro-4-((1-(2-fluorophenyl)ethyl)amino)quinolin-6-yl)phenyl)ethane-1,2-diol]
3 | < 1000 nM | CC(=O)c1ccc(F)c([C@@H](C)Nc2c(Cl)cnc3ccc(-c4cnc(C(C)(C)O)nc4)cc23)c1 [Example 409, (R)-1-(3-(1-((3-chloro-6-(2-(2-hydroxypropan-2-yl)pyrimidin-5-yl)quinolin-4-yl)amino)ethyl)-4-fluorophenyl)ethan-1-one]
4 | < 1000 nM | Cc1ccc(-c2ccc(F)c([C@@H](C)Nc3c(Cl)cnc4ccccc34)c2)cn1 [Example 518, (R)-3-chloro-N-(1-(2-fluoro-5-(6-methylpyridin-3-yl)phenyl)ethyl)quinolin-4-amine]
